Laboratory results: patent US7132449B2, “Inhibitors of cruzipain and other cysteine proteases” (Amura Therapeutics Limited, priority 2001, dated 2006)

How the values were obtained:
Human Cathepsin L = molecular target: T1, Human Cathepsin L (Homo sapiens, UniProt P07711); assay: Cathepsin peptidase activity assay, human cathepsin L (Ki); format: biochemical; conditions: pH 6.5, 25±1° C.
T1 construct: purchased CN Biosciences
Experimental: (§1) Assay protocols were based on literature precedent (Table 1; Barrett, A. J., Rawlings, N. D. and Woessner, J. F., 1998, Handbook of Proteolytic Enzymes, Academic Press, London and references therein) and modified as required to suit local assay protocols. Enzyme was added as required to initiate the reaction and the activity, as judged by the change in fluorescence upon conversion of substrate to product, was monitored over time. All assays were carried out at 25±1° C.
(§2) Bovine cathepsin S, human cathepsin L, human cathepsin H and human cathepsin B were obtained from CN Biosciences. Recombinant human cathepsin S, human cathepsin K and human cathepsin X were obtained from Dr. Boris Turk (Josef Stefan Institute, Ljubljana, Slovenia). Unless otherwise stated, all peptidase activity assays were carried out in 10 mM bis-tris-propane (BTP), pH 6.5 containing 1 mM EDTA, 5 mM 2-mercaptoethanol and 1 mM CaCl2. Human cathepsin H activity assays were carried out in 10 mM BTP pH 6.5, 142 mM […], 1 mM CaCl2, 1 mM EDTA, 1 mM DTT, 0.035 mM Zwittergent 3–16. Human cathepsin K assays were carried out in 100 mM sodium acetate; pH 5.5 containing 20 mM L-cysteine and 1 mM EDTA (Bossard, M. J., et. al., J. Biol. Chem., […], 12517–12524, 1996). […] The final enzyme concentrations used in the assays were 0.5 nM bovine cathepsin S, 1 nM cathepsin L, 0.1 nM cathepsin B, 0.25 nM Cathepsin K; 1 nM cathepsin X and 10 nM cathepsin H. For the inhibition assays, the substrates used for cathepsin S, cathepsin L, cathepsin B, cathepsin K and cathepsin H were boc-Val-Leu-Lys-AMC (KM^app≈30 μM, Ac-Phe-Arg-AMC (KMaPP 20 EM), Z-Phe-Arg-AMC (KM^app≈40 μM), Z-Leu-Arg-AMC (KM^app≈2 μM); Bz-Phe-Val-Arg-AMC (KM^app≈150 μM) respectively. In each case the substrate concentration used in each assay was equivalent to the KM^app. The rate of conversion of substrate to product was derived from the slope of the increase in fluorescence monitored continuously over time.
(§3) The apparent inhibition constant (Ki) for each compound was determined on the basis that inhibition was reversible and occurred by a pure-competitive mechanism. The Ki values were calculated, from the dependence of enzyme activity as a function of inhibitor concentration, by direct regression analysis (Prism v 3.02) using Equation 2 (Cornish-Bowden, A., 1995.).
(§4) In situations where the apparent dissociation constant (Ki^app) approached the enzyme concentrations, the Ki^app values were calculated using a quadratic solution in the form described by Equation 3 (Morrison, J. F. Trends Biochem. Sci., 7, 102–105, 1982; Morrison, J. F. Biochim. Biophys. Acta, 185, 269–286, 1969; Stone, S. R. and Hofsteenge, J. Biochemistry, 25, 4622–4628, 1986).

Bovine Cathepsin S = molecular target: T2, Bovine Cathepsin S (Bos taurus, UniProt P25326); assay: Cathepsin peptidase activity assay, bovine cathepsin S (Ki); format: biochemical; conditions: pH 6.5, 25±1° C.
T2 construct: purchased CN Biosciences
Experimental: as §1, §2, §3, §4

Human Cathepsin K = molecular target: T3, Human Cathepsin K (Homo sapiens, UniProt P43235); assay: Cathepsin peptidase activity assay, human cathepsin K (Ki); format: biochemical; conditions: pH 5.5, 25±1° C.
T3 construct: Dr. Boris Turk (Josef Stefan Institute, Ljubljana, Slovenia)
T3 sequence (P43235 115-329): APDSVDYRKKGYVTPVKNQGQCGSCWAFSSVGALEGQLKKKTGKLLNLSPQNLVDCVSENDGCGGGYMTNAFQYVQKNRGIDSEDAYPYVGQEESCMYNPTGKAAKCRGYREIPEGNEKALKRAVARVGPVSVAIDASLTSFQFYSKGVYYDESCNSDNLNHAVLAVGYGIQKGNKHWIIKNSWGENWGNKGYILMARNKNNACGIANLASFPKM
Experimental: as §1, §2, §3, §4

Cruzipain = Cruzipain (Trypanosoma cruzi, UniProt P25779); assay: Trypanosoma cruzi cruzipain peptidase activity assay (Ki); format: biochemical; conditions: wild-type cruzipain from Trypanosoma cruzi Dm28 epimastigotes, pH 6.75, 25±1° C.
Experimental: as §1
Wild-type cruzipain, derived from Trypanosoma cruzi Dm28 epimastigotes, was obtained from Dr. Julio Scharfstein (Instituto de Biofisica Carlos Chagas Filho, Universidade Federal do Rio de Janeiro, R10 de Janeiro, Brazil). Activity assays were carried out in 100 mM sodium phosphate, pH 6.75 containing 1 mM EDTA and 10 mM L-cysteine using 2.5 nM enzyme. Ac-Phe-Arg-AMC (KM^app≈12 μM) and D-Val-Leu-Lys-AMC (KM^app≈4 μM) were used as the substrates. Routinely, Ac-FR-AMC was used at a concentration equivalent to KM^app and D-Val-Leu-Lys-AMC was used at a concentration of 25 μM. The rate of conversion of substrate to product was derived from the slope of the increase in fluorescence monitored continuously over time.
as §3, §4

[1] = test system: Trypanosoma cruzi infection; conditions: during the acute phase of infection; cited from earlier work
[2] = test system: Trypanosoma cruzi-infected mammalian cell cultures; conditions: added to Trypanosoma cruzi-infected mammalian cell cultures; cited from earlier work

T2 sequence (P25326 115-331): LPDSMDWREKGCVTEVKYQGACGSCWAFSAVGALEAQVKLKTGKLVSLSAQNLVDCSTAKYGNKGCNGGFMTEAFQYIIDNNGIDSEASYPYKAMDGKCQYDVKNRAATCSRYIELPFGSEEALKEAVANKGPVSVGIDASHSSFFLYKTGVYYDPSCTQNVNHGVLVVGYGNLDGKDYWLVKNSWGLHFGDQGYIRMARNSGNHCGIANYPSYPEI
Sequence of Cruzipain (P25779 whole entry): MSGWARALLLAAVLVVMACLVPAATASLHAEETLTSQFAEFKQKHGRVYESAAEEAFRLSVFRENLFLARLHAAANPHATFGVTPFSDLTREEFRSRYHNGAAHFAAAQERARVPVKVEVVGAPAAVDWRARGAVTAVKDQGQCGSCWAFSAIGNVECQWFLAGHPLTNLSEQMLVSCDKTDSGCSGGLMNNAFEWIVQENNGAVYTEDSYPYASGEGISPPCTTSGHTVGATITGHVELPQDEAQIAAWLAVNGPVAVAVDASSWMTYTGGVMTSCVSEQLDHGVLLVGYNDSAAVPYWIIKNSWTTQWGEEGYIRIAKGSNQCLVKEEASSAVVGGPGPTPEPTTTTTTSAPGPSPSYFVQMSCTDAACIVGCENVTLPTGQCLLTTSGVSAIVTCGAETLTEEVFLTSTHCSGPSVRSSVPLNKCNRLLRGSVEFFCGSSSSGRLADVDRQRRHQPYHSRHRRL
T1 sequence (P07711 114-333): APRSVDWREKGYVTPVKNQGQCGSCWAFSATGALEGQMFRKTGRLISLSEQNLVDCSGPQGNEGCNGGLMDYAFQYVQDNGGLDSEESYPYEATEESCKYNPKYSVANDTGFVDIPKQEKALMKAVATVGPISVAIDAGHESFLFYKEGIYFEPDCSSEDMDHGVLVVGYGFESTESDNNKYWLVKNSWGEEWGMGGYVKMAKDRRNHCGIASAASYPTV

Ki (Human Cathepsin L) [µM]	Ki (Bovine Cathepsin S) [µM]	Ki (Human Cathepsin K) [µM]	Ki (Cruzipain) [µM]	Compound	cure [1] [%]	effect on replication and differentiation of the parasite [2]
> 100	> 50	> 5	< 5	CC(C)C[C@H](CC(=O)n1ccc(-c2ccccc2)c1)C(=O)N[C@@H]1C(=O)CO[C@@H]1C [Example 22, (2R, 3S) 4-Methyl-2-[2-oxo-2-(3-phenyl-pyrrol-1-yl)-ethyl]-pentanoic acid (2-methyl-4-oxo-tetrahydrofuran-3-yl)-amide]	–	–
–	–	–	–	O=C(Cn1ccnc1[N+](=O)[O-])NCc1ccccc1 [benznidazole]	~60	–
< 10	> 100	> 100	> 100	C[C@H]1OCC(=O)[C@H]1NC(=O)[C@H](Cc1ccccc1)OCc1cccc2ccccc12 (racemic) [Example 49]	–	–
> 5	> 20	< 1	> 10	CC(C)CC(C(=O)N[C@H]1C(=O)CO[C@@H]1C)c1cccc(-c2ccccc2)c1 (mixture of isomers) [Example 46, (2R, 3R) 2-Biphenyl-3-yl-4-methyl-pentanoic acid (2-methyl-4-oxo-tetrahydrofuran-3-yl)-amide]	–	–
–	–	–	–	CC(NC(=O)C(Cc1ccccc1)NC(=O)OCc1ccccc1)C(=O)CF (stereo not drawn) [Z-Phe-Ala-FMK]	–	blocked replication and differentiation of the parasite
> 100	< 10	> 100	> 100	C[C@@H]1OCC(=O)[C@H]1NC(=O)[C@H](CC1CCCCC1)SCc1ccco1 [Example 4, (2S, 3S) 3-Cyclohexyl-2-(furan-2-ylmethylsulfanyl)-N-(2-methyl-4-oxo-tetrahydrofuran-3-yl)-propionamide]	–	–
